According to US6455535B1, “Substituted aminoquinazolinone (thione) derivatives or salts thereof, intermediates thereof, and pest controllers and a method for using the same” (Nihon Nohyaku Co., Ltd., priority 1999, dated 2002):

Legend:
[1] = system: greenhouse whitefly (Trialeurodes vaporariorum); test: Insecticidal test on greenhouse whitefly, tomato leaf spray (Test Example 3); format: in vivo; conditions: 100 ppm test liquid sprayed on tomato leaf, 20 adults inoculated; for mortality at 100 ppm: Trialeurodes vaporariorum, read-out: insecticidal effect rating (mortality of adults)
Method: Insecticidal Test on Greenhouse Whitefly (Trialeurodes vaporariorum)
Each compounds of the present invention listed in Table 3 and Table 4 was dispersed in and diluted with water to prepare a test liquid containing 100 ppm of the test compound. By use of a spraygun, the test liquid was sprayed on the surface of a leaf of tomato plant put in a 20 ml-vial bottle containing water on a turn table. After air-dried, the leaf treated with the test liquid was put in a glass cylinder, and inoculated with 20 adults of greenhouse whitefly thereon. After the inoculation, the leaf was placed in a greenhouse, and the number of adults of greenhouse whitefly was counted. The mortality of the adults was calculated similar to that of conducted in Test Example 2, and the insecticidal effect of each one of the test compounds was evaluated by the method identical to Test Example 1.

[2] = system: brown rice planthopper (Nilaparvata lugens); test: whole plant or invertebrate; format: in vivo; conditions: 192 h, rice seedlings immersed 30 seconds, 10 third-instar nymphs, eight days after inoculation, read-out: insecticidal effect rating (corrected larval mortality)
Excerpt: Insecticidal Effect on Brown Rice Planthopper (Nilaparvata lugens)
Each substituted aminoquinazolinone (thione) derivative of the general formula (I) or salt thereof of the present invention listed in Tables 3 and 4 was dispersed in and diluted with water to obtain a 500 ppm liquid chemical. Rice seedlings (cultivar: Nihonbare) were immersed in the liquid chemical for 30 seconds and air-dried, after which each seedling was placed in a glass test tube and inoculated with 10 third-instar nymphs of brown rice planthopper, and the test tube was pluged with a cotton plug. Eight days after the inoculation, the dead and alive were counted. The mortality was calculated by the following equation and the control effect was judged according to the criterion described below.
Corrected larval mortality (%)={(Ca/c−Ta/T)/Ca/c}×100
Ta: number of alive nymphs in treated groups
T: number of inoculated nymphs in treated groups
Ca: number of alive numphs in untreated groups
c: number of inoculated nymphs in untreated groups
Criterion: the same as in Test Example 1.

Structure (SMILES)	mortality at 100 ppm [1] [%]	mortality at 500 ppm [2] [%]	insecticidal effect rating (mortality of adults) [1]
O=C1Nc2ccc(OC(F)(F)F)cc2CN1/N=C/c1cccnc1 [Compound No. 30, 3-(3-pyridylmethylideneamino)-3,4-dihydro-6-trifluoromethoxy-2(1H)-quinazolinone]	100	100	
O=C1Nc2ccc(OC(F)(F)F)cc2CN1NCc1cccnc1 [Compound No. 208, 3-(3-pyridylmethylamino)-3,4-dihydro-6-trifluoromethoxy-2(1H)-quinazolinone]	100	100	
O=C1Nc2ccc(I)cc2CN1N=Cc1cccnc1 [compound 10]			D or higher
O=C1Nc2ccc(C(F)(F)F)cc2CN1N=Cc1cccnc1 [compound 14]			D or higher
O=C1Nc2ccc(OC(F)F)cc2CN1N=Cc1cccnc1 [compound 38]			D or higher
CCOC(=O)c1ccc2c(c1)CN(N=Cc1cccnc1)C(=O)N2 [compound 78]			D or higher
O=C1Nc2ccc(-c3ccccc3)cc2CN1N=Cc1cccnc1 [compound 86]			D or higher
O=C1Nc2ccc(-c3ccc(Cl)cc3)cc2CN1N=Cc1cccnc1 [compound 90]			D or higher
